Assay: Solubility of envelope-disordering compounds in the diol compounds
Settings: typical compositions

Compound: CCCCCCCCCCO [n-decanol]
- soluble in the diol compounds / same compositions up to: up to 50 % by weight
